Results published in patent US20040152903A1, “6-chloro-3-pyridylmethylpropylamine derivatives, preparation process thereof and bactericides” (priority 2004, published 2004).

Tests used:
wheat powdery mildew [1] = assay: Test of control effect on wheat powdery mildew; assay type: in vivo; parameters: Control Value: scale not given here; conditions: wettable powder 125 mg/l, 100 liters/10 a, wheat seedlings (Nourin 64), examined 9th to 14th day after inoculation
Description: (Test of Control Effect on Wheat Powdery Mildew) Wettable powders were prepared from compounds of the present invention I-1 to I-27 and comparative compounds (a) to (d), (m-1) and (m-3). The obtained wettable powder was diluted and suspended with water to provide the predetermined concentration (125 mg/l), and was sprinkled onto seedlings of wheat (variety: “Nourin 64”) at the first to the second leaf period which were cultivated using square plastic pots (size: 6.4 cm×6.4 cm) in a rate of 100 liters/10 a (ares). After drying the sprinkled leaves with air, a suspension of wheat powdery mildew spores taken from infected leaves was inoculated by spraying onto the sprinkled leaves. They were supervised in a green house (temperature: 20 to 24° C., relative humidity: 20 to 70 RH). On the 9th to 14th day after the inoculation, the infection degree was examined according to the following scale and the control value of each compound was calculated by the following calculation equation 1. [table]

cucumber powdery mildew = assay: Test of control effect on cucumber powdery mildew; assay type: in vivo; conditions: wettable powder 100 mg/l, 100 liters/10 a, cucumber (Sagamihanpakufushinari), examined 9th to 14th day after inoculation
Description: (Test of Control Effect on Cucumber Powdery Mildew) The wettable powders formulated by using each of the compounds I-1 to 27 according to the present invention and the comparative compounds (a) to (d), (m-1) and (m-3) were each diluted and suspended with water to a predetermined concentration (100 mg/l), the suspension was sprinkled over the first to the second leaf period cucumbers (variety: “[…]”) cultivated by using a square plastic pot (size: 6.4 cm×6.4 cm) in a rate of 100 liters/10 a (ares). After the sprinkled leaves were air-dried, the spores were inoculated over the leaves by sprinkling the same with a brush from an infected leaf, a disease was contracted in a glass house (temperature: 20 to 24° C., relative humidity: 20 to 70 RH). On the 9th to 14th day after the inoculation, the infection degree was examined according to the following scale and the control value of each compound was calculated by the following calculation equation 2: (Examination Scale) [table]

Botrytis cinerea = assay: Antifungal activity test (PDA plate, hypha extension inhibition); assay type: cell-based; conditions: 1.6 ppm in PDA culture medium
Description: (Antifungal Activity Test against Various Pathogenic Fungi) For each of the compounds I-1 to 27 of the present invention and the comparative compounds (a) to (d), (m-1) and (m-3), 20 mg was weighed and dissolved in 2 ml of dimethylsulfoxide, and a double dilution row in 10 steps was prepared by further using dimethylsulfoxide. A 0.6 ml portion of these solutions was each added to 60 ml of a PDA culture medium (potato-dextrose-agar culture medium) at about 60° C., they were well mixed in a 100 ml Erlenmeyer flask, the solution was poured into a schale and was solidified, the plate culture media containing the compounds according to the present invention with final concentrations of 100, 50.0, 25.0, 12.5, 6.3, 3.2, 1.6, 0.8, 0.4 and 0.2 mg/l were prepared. On the other hand, the specimen bacteria cultured on the plate culture media beforehand was punched by a 4 mm diameter cork borer, and was inoculated on the plate culture media containing the aforementioned chemicals. After the inoculation, the bacteria were cultured at the optimum growth temperature of each bacterium for 1 to 7 days (for this optimum growth temperature, LIST OF CULTURES 1996 Microorganisms 10th edition published by Fermentation Research Institute (Foundation) can be referred to.), and the growth of the bacteria was measured by the diameter of a colony. […] R=100(dc−dt)/dc (Equation 3) [wherein each symbol is shown as follows: R=Hypha extension inhibition rate (%), dc=Diameter of colony on no-treated plate, dt=Diameter of colony on chemical-treated plate.] The results obtained above was evaluated in 5 steps in accordance with the following examination scale. <Growth Inhibition> 5: Hypha extension inhibition rate of 90% or more 4: Hypha extension inhibition rate of from 70% to less than 90% 3: […] 2: […] In addition, the abbreviations in Table 10 are as follows: B.c: Botrytis cinerea

wheat powdery mildew [2] = assay: Permeable mobility fungicidal effect test in leaf section of wheat powdery mildew; assay type: in vivo; conditions: length of non-contracted area relative to compound (m-2); 200 mg/l, 0.5 μl applied to wheat leaf (Abukumawase)
Description: (Permeable Mobility Fungicidal Effect Test in Leaf Section of Wheat Powdery Mildew) In the test example 4, permeable mobility fungicidal effect test was performed on the leaf section of wheat powdery mildew with regard to the compounds I-1 to 27 according to the present invention and the comparative compounds (a) to (d), and (m-1) to (m-3) with the method described later. <Test Method> The compound in the form of a wettable powder obtained by Formulation 2 or the like was diluted and suspended with water to a predetermined concentration (200 mg/l), and 0.5 μl of the suspension was applied to a 2 to 3 cm leaf portion from the root of the three leaves of the 4th to 4.5th leaf period wheat (variety: Abukumawase) cultured by using a square plastic pot (size: 6.4 cm×6.4 cm). After these wheat leaves were subject to still standing in a glass house (temperature: 20 to 24° C., relative humidity: 20 to 70 RH) for one day, the spores of wheat powdery mildew were inoculated over the leaves by sprinkling the same with a brush from an infected leaf, a disease was contracted in the same glass house. The length of a non-contracted area generated from the applied portion to the direction of the leaf top was measured, and a relative mobility to the compound (m-2) was calculated with the following calculation […] by using the comparative compound (m-2) as a standard compound. Relative mobility=(Length of non-contracted area in each chemical section (cm)/Length of non-contracted area of compound (m-2) (cm)) (Equation 4)

Compound | pest or weed control at 125 µg/mL (wheat powdery mildew [1]; Triticum aestivum) | pest or weed control at 100 µg/mL (cucumber powdery mildew; Cucumis sativus) | inhibition at 1.6 ppm (Botrytis cinerea; read-out: Growth Inhibition B.c (1.6)) | Control Value (wheat powdery mildew [1]) | Control Value (cucumber powdery mildew) | Relative Mobility (wheat powdery mildew [2]) | Growth Inhibition B.c (1.6) (Botrytis cinerea)
COc1cccc(CC(C)CN(C)Cc2ccc(Cl)nc2)c1 (stereo not drawn) [(m-3), 6-chloro-N-[3-(3-methoxyphenyl)-2-methylpropyl]-N-methyl-3-pyridylmethylamine, reference compound] | 0% | 0% | < 20% | – | – | – | –
CC(Cc1cc(C(F)(F)F)cc(C(F)(F)F)c1)CN(C)Cc1ccc(Cl)nc1 (stereo not drawn) [Compound I-1] | – | – | – | 100 | 100 | 3 | 4 (Hypha extension inhibition rate of from 70% to less than 90%)
CC(Cc1ccc(C(F)(F)F)cc1C(F)(F)F)CN(C)Cc1ccc(Cl)nc1 (stereo not drawn) [Compound I-2] | – | – | – | 100 | 100 | 3 | 4 (Hypha extension inhibition rate of from 70% to less than 90%)
CC(Cc1cc(C(F)(F)F)ccc1C(F)(F)F)CN(C)Cc1ccc(Cl)nc1 (stereo not drawn) [Compound I-3] | – | – | – | 90 | 100 | 3 | 4 (Hypha extension inhibition rate of from 70% to less than 90%)
CC(Cc1cc(C(F)F)cc(C(F)(F)F)c1)CN(C)Cc1ccc(Cl)nc1 (stereo not drawn) [Compound I-4] | – | – | – | 100 | 80 | 3 | 4 (Hypha extension inhibition rate of from 70% to less than 90%)
CC(Cc1cc(Cl)cc(C(F)(F)F)c1)CN(C)Cc1ccc(Cl)nc1 (stereo not drawn) [Compound I-5] | – | – | – | 100 | 100 | 3 | 4 (Hypha extension inhibition rate of from 70% to less than 90%)
CC(Cc1cc(F)cc(C(F)(F)F)c1)CN(C)Cc1ccc(Cl)nc1 (stereo not drawn) [Compound I-6] | – | – | – | 100 | 100 | 5 | 4 (Hypha extension inhibition rate of from 70% to less than 90%)
CC(Cc1cccc(C(F)(F)F)c1F)CN(C)Cc1ccc(Cl)nc1 (stereo not drawn) [Compound I-7] | – | – | – | 100 | 90 | 5 | 4 (Hypha extension inhibition rate of from 70% to less than 90%)
CC(Cc1c(F)c(F)c(C(F)(F)F)c(F)c1F)CN(C)Cc1ccc(Cl)nc1 (stereo not drawn) [Compound I-11] | – | – | – | 90 | 100 | 5 | 4 (Hypha extension inhibition rate of from 70% to less than 90%)
CC(Cc1ccc(OC(F)F)cc1)CN(C)Cc1ccc(Cl)nc1 (stereo not drawn) [Compound I-13] | – | – | – | 100 | 100 | 9 | 4 (Hypha extension inhibition rate of from 70% to less than 90%)
CC(Cc1ccc(OC(F)(F)C(F)C(F)(F)F)cc1)CN(C)Cc1ccc(Cl)nc1 (stereo not drawn) [Compound I-14] | – | – | – | 100 | 100 | 7 | 4 (Hypha extension inhibition rate of from 70% to less than 90%)
CC(Cc1ccc(Cl)c(OC(F)(F)F)c1)CN(C)Cc1ccc(Cl)nc1 (stereo not drawn) [Compound I-15] | – | – | – | 100 | 100 | 9 | 4 (Hypha extension inhibition rate of from 70% to less than 90%)
CC(Cc1ccc(OC(F)(F)F)c(Cl)c1)CN(C)Cc1ccc(Cl)nc1 (stereo not drawn) [Compound I-18] | – | – | – | 100 | 100 | 8 | 5 (Hypha extension inhibition rate of 90% or more)
CC(Cc1ccc(OC(F)(F)Br)c(Cl)c1)CN(C)Cc1ccc(Cl)nc1 (stereo not drawn) [Compound I-19] | – | – | – | 100 | 100 | 8 | 4 (Hypha extension inhibition rate of from 70% to less than 90%)
CC(Cc1cc(Cl)c(F)c(Cl)c1)CN(C)Cc1ccc(Cl)nc1 (stereo not drawn) [Compound I-22] | – | – | – | 100 | 100 | 3 | 4 (Hypha extension inhibition rate of from 70% to less than 90%)
CC(Cc1c(F)c(F)c(F)c(F)c1F)CN(C)Cc1ccc(Cl)nc1 (stereo not drawn) [Compound I-23] | – | – | – | 100 | 70 | 4 | 4 (Hypha extension inhibition rate of from 70% to less than 90%)
CC(Cc1ccc2c(c1)OC(Cl)(Cl)O2)CN(C)Cc1ccc(Cl)nc1 (stereo not drawn) [Compound I-25] | – | – | – | 100 | 100 | 3 | 4 (Hypha extension inhibition rate of from 70% to less than 90%)
CC(Cc1ccc2c(c1)OC(F)(F)C(F)(F)O2)CN(C)Cc1ccc(Cl)nc1 (stereo not drawn) [Compound I-26] | – | – | – | 100 | 100 | 3 | 4 (Hypha extension inhibition rate of from 70% to less than 90%)
CC(Cc1ccc2c(c1)C(F)(F)OC(F)(F)O2)CN(C)Cc1ccc(Cl)nc1 (stereo not drawn) [Compound I-27] | – | – | – | 100 | 100 | 3 | 4 (Hypha extension inhibition rate of from 70% to less than 90%)
